Assay results taken from patent US8252835B2, “Compounds and methods for treating estrogen receptor-related diseases” (Shenogen Pharma Group Ltd., priority 2006, dated 2012).
Blank lines part the entries; values can stand above or below the compound they belong to.

Legend:
MDA-MB-231 cells = assay: MDA-MB-231 colony formation, crystal violet staining; type: cell-based; conditions: 10 days, FIG. 4
MCF7 cells [1] = assay: MCF7 colony formation; type: cell-based; conditions: 10 days, FIG. 5a
breast cancer cells = conditions: background, literature (Liu 2005; Wang 2004; Ye 2005); cited from earlier work
ER-α36 = target: T1, ER-α36 (Homo sapiens, UniProt P03372); assay: Western blot of ER-α36 expression in MCF7 cells; conditions: zero to 25 μM, 12 hours, FIG. 9
T1 sequence (P03372 1-310 isoform P03372-4): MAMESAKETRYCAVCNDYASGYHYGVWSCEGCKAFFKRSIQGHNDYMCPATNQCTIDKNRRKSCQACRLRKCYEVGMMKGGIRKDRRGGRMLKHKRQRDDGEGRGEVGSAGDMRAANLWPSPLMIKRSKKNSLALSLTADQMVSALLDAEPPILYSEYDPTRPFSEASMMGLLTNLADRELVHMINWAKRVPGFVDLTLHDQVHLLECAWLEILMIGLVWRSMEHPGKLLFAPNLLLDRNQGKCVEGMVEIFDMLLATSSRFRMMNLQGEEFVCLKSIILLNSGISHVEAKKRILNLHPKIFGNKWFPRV

ER-α66 = target: T2, ER-α66 (Homo sapiens, UniProt P03372); assay: Western blot of ER-α66 expression in MCF7 cells; conditions: zero to 25 μM, 12 hours, FIG. 9
T2 sequence (P03372 1-595): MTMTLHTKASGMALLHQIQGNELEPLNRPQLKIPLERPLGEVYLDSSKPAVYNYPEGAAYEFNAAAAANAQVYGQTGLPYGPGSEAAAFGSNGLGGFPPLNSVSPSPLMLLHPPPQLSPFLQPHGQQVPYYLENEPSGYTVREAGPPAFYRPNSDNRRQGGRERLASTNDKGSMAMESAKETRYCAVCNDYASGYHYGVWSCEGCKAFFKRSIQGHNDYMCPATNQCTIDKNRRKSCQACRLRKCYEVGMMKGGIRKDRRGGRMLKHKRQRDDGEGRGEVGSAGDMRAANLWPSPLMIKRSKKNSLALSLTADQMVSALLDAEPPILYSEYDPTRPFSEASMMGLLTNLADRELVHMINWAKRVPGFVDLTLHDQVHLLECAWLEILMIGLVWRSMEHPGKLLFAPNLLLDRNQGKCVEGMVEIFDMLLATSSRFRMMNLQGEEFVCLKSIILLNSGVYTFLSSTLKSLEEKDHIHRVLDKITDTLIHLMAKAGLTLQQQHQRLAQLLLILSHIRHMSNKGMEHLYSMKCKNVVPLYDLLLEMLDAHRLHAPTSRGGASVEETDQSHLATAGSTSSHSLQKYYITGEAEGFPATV

ER-α46 = target: T3, ER-α46 (Homo sapiens, UniProt P03372); assay: Western blot of ER-α46 expression in MCF7 cells; conditions: zero to 25 μM, 12 hours, FIG. 9
T3 sequence (P03372 1-422 isoform P03372-3): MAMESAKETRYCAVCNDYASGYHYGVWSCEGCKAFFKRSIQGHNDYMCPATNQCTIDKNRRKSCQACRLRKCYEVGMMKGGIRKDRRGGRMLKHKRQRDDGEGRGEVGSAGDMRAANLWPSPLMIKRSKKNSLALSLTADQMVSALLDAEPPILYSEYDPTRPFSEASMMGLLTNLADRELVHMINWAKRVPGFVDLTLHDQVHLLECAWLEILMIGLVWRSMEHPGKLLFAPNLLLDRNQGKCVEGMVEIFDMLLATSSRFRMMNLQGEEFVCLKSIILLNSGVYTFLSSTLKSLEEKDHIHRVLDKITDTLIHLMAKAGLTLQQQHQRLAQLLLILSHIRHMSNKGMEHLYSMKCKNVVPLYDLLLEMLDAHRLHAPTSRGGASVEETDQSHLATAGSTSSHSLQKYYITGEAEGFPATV

MCF7 cells [2] = assay: MCF7 surviving cell count (hemocytometer); conditions: for numbers of surviving MCF7 cells: 5 μM and up, two weeks, FIG. 5b
[3] = Asthma attack induced by ovalbumin in guinea pigs; type: in vivo; conditions: for blood concentration of histamine / concentration of IgE in the blood: ELISA; for blood concentration of histamine: FIG. 19; for concentration of IgE in the blood: FIG. 20; for percentage of oxyphil cells in the blood: control about 9.9%, normal about 5.3%
Method: Guinea pigs of 250-300 g were provided by Beijing Haidian Xingwang Animal Farm. The guinea pigs were injected with 1 ml 10% ovalbumin (Sigma Cat. No. A5253) into abdomen once. On the 15th-17th day after the injection, the guinea pigs were given 1% aerosolized ovalbumin for about 20 seconds through nasal spray to induce asthma attack. The latent period before asthma attack calculated from after ovalbumin administration to the time when the guinea pigs collapsed with convulsion was measured.
On the 17th day after injection, the qualified guinea pigs were divided into 3 groups, the high dosage IC-163 group (4 mg/kg/day), the low dosage IC-163 group (1 mg/kg/day) and the control group. Each group consisted of 10 guinea pigs. A normal group consisting of 8 normal guinea pigs which had not been injected with any 10% ovalbumin was also tested. IC-163 was administered to the guinea pigs at 4 mg per kilogram of body weight per day (the high dosage group) or 1 mg per kilogram of body weight per day (the low dosage group) through muscle injection once a day for 6 days while the guinea pigs of the normal group and the control group were injected with saline water. On the 4th and 6th day of administering the drug, the guinea pigs were induced for asthma attack in the same way as above. The latent period before asthma attack was measured. If the latent period lasted longer than 5 minutes, the latent period was recorded as 5 minutes. On the 6th day, blood was drawn from the guinea pigs of the four groups to examine the percentage of oxyphil cells, the concentrations of histamine and IgE in the blood. The percentage of oxyphil cells was measured by counting the number of oxyphil cells in every 200 leukocytes under microscope. The concentrations of histamine and IgE were measured by double-antibody sandwich ELISA (Enzyme Linked Immunosorbent Assay).

H226 Lung Cancer Cells = assay: H226 lung cancer surviving cell count; type: cell-based; conditions: 10 μM, FIG. 16
[4] = test system: Tamoxifen resistant MCF7 cells (MCF7/TAM); assay: Surviving cell count, Tamoxifen resistant MCF7 cells; conditions: 10 μM, FIG. 16
PC3 cells = assay: PC3 prostate cancer surviving cell count; type: cell-based; conditions: 10 μM, FIG. 16
cell proliferation = conditions: background, literature; cited from earlier work
[5] = test system: human endometrial cancer Hec1A cells; assay: MTT assay of Hec1A cell growth; type: cell-based; conditions: 24 hours
Method: Human endometrial cancer Hec1A cells (ATCC No.: HTB-112™) were subseeded in a 96-well culture plate at a concentration of 5×10^3 cells/well and were cultured in DMEM containing high glucose medium (HyClone, SH30022.01B). […] The cells then were incubated with 0.5 mg/ml 3-(4,5-dimethylthiazol-2-yl)-2,5-diphenyltetrazolium bromide (MTT) for 4 hours at 37° C. wherein the MTT was reduced to insoluble purple formazan by the active mitochondrial reductase enzymes in the living cells. Then the excessive liquid MTT was removed from the reaction mixture. 150 μl of DMSO was added to dissolve the purple formazan into a colored solution. The optical density of the colored solution was measured at 490 nm using a microplate reader.

[6] = zero to 25 μM, as concentration rose
[7] = high dosage 4 mg/kg/day, 6th day
[8] = low dosage 1 mg/kg/day, 6th day

Compound: O=c1cc(-c2ccc(O)c(O)c2)oc2cc(O)cc(O)c12 [Luteolin]
numbers of colonies of MDA-MB-231 cells (MDA-MB-231 cells; 5 μM): decreased | numbers of colonies of MDA-MB-231 cells (MDA-MB-231 cells; 40 μM): dropped to near zero | number of colonies of MCF7 cells (MCF7 cells [1]; [6]): significantly reduced

Compound: CC(C)=CCc1c(O)cc(O)c2c(=O)c(O)c(-c3ccc(O)cc3)oc12 [desmethylicaritin, reference compound]
proliferation of breast cancer cells (breast cancer cells): significantly increase

Compound: C[C@]12CC[C@@H]3c4ccc(O)cc4C[C@@H](CCCCCCCCC[S+]([O-])CCCC(F)(F)C(F)(F)F)[C@H]3[C@@H]1CC[C@@H]2O (some centres unmarked) [ICI 182,780]
numbers of colonies of MDA-MB-231 cells (MDA-MB-231 cells; 5 μM): decreased | numbers of colonies of MDA-MB-231 cells (MDA-MB-231 cells; 50 μM): remained at a high level | number of colonies of MCF7 cells (MCF7 cells [1]; 25 μM): only a limited decrease

ER-α36 expression (ER-α36): greatly reduced | ER-α66 expression (ER-α66): greatly reduced | ER-α46 expression (ER-α46): greatly reduced
Compound: CC1(C)CCc2c(cc(O)c3c(=O)c(O)c(-c4ccc(O)cc4)oc23)O1 [Y4, 3,5-dihydroxy-2-(4-hydroxyphenyl)-8,8-dimethyl-9,10-dihydro-4H,8H-pyrano[2,3-f]chromen-4-one]
numbers of surviving MCF7 cells (MCF7 cells [2]): significantly reduced

ER-α36 expression (ER-α36): greatly reduced | ER-α66 expression (ER-α66): greatly reduced | ER-α46 expression (ER-α46): greatly reduced
Compound: COc1ccc(-c2oc3c(CCC(C)(C)O)c(O)cc(O)c3c(=O)c2O)cc1 [IC 163, 3,5,7-trihydroxy-8-(3-hydroxy-3-methylbutyl)-2-(4-methoxyphenyl)-4H-chromen-4-one]
latent period before asthma attack extended in comparison with the control group ([3]; high dosage 4 mg/kg/day muscle injection, 4th day): 72.9% | latent period before asthma attack extended in comparison with the control group ([3]; high dosage 4 mg/kg/day muscle injection, 6th day): 63.5% | blood concentration of histamine [3, 7]: significantly reduce | concentration of IgE in the blood [3, 7]: significantly reduce | percentage of oxyphil cells in the blood [3, 7]: about 8.6% | latent period before asthma attack extended in comparison with the control group ([3]; low dosage 1 mg/kg/day muscle injection, 4th day): 83.4% | latent period before asthma attack extended in comparison with the control group ([3]; low dosage 1 mg/kg/day muscle injection, 6th day): 72.7% | blood concentration of histamine [3, 8]: significantly reduce | concentration of IgE in the blood [3, 8]: significantly reduce | percentage of oxyphil cells in the blood [3, 8]: about 7.8% | numbers of cells (H226 Lung Cancer Cells): reduced | numbers of cells [4]: reduced | numbers of cells (PC3 cells): reduced | numbers of surviving MCF7 cells (MCF7 cells [2]): significantly reduced | numbers of cells (MCF7 cells [2]; 10 μM, FIG. 16): reduced

Compound: COc1ccc(-c2oc3c(CC=C(C)C)c(O[C@@H]4O[C@H](CO)[C@@H](O)[C@H](O)[C@H]4O)cc(O)c3c(=O)c2O[C@@H]2O[C@@H](C)[C@H](O)[C@@H](O)[C@H]2O)cc1 [Icariin]
effect on cell proliferation in vitro (cell proliferation): no effect

Compound: CC/C(=C(\c1ccccc1)c1ccc(OCCN(C)C)cc1)c1ccccc1 [Tamoxifen]
numbers of colonies of MDA-MB-231 cells (MDA-MB-231 cells; 5 μM): decreased | numbers of colonies of MDA-MB-231 cells (MDA-MB-231 cells; 10 μM): reduced to near zero | effect on the growth of Hec1A cells ([5]; concentrations below 3 μM): stimulating the growth | optical density at 490 nm (MTT) ([5]; concentrations increased from 0.001 μM to 3 μM, FIG. 21): rose | number of colonies of MCF7 cells (MCF7 cells [1]; [6]): significantly reduced
